Read-outs that look alike come from different tables or passages of the source.
Experiments:
CREBBP (1084-1701) = biological target: T1, CREBBP (1084-1701) (Homo sapiens, UniProt Q92793); assay: Biochemical assay for CREBBP (1084-1701), SAMDI; conditions: SAMDI, read-out: CREBBP Biochemistry IC50
T1 construct: measured in the following biochemical assay using CREBBP (1084-1701); purchased
Outline: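 CREBBP (1084-1701) preincubated with compound 30 min at RT, then substrate mix (biotin-H3 11-25 K14R/K23R peptide, acetyl-CoA) added for 30 min at RT. Reaction stopped with formic acid, neutralised with sodium bicarbonate. Peptide acetylation read by SAMDI mass spectrometry to derive IC50.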

647V cells = assay: High throughput proliferation (HTP) assay; type: cell-based; conditions: read-out: CREBBP HTP IC50
Source text: The following example describes methods and materials relating to a high throughput proliferation (HTP) assay. IC50 values (micromolar) are summarized in Table 1, Table 2, and Table 3 under the column labeled: “CREBBP HTP IC50 (micromolar).”
MATERIALS: 647V cell line, Dulbecco's MEM, penicillin-streptomycin, heat inactivated fetal bovine serum, D-PBS, and CellTiter-Glo were commercially available.
647V adherent cells were maintained in complete growth medium (Dulbecco's MEM supplemented with 15% v/v heat inactivated fetal bovine serum) and cultured at 37° C. under 5% CO2.
METHOD: Measurement of the effect of compound in High Throughput Proliferation (HTP) assays was performed as follows: Exponentially growing 647V cells were plated, in triplicate, in 384-well plates at the appropriate cell density in a final volume of 50 μl. Cells were incubated in the presence of increasing concentrations of compound. Viable cell number was determined at day 7 by addition of 35 μl CellTiter-Glo to each well of the plate, incubated in the dark for 30 minutes, and read on a PerkinElmer EnVision instrument to enumerate the number of cells.

[1] = test system: H3K18Ac in HB-CLS-2 cells; assay: H3K18AC in-cell western (ICW) assay; type: cell-based; conditions: read-out: CREBBP ICW IC50
Outline: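 HB-CLS-2 cells seeded 16–24 hours before 2 hr compound treatment at 37° C, 5% CO2, then methanol-fixed. H3K18Ac detected with rabbit monoclonal primary (overnight, 4° C) and 800CW anti-rabbit secondary; DRAQ5 stained DNA. Plates imaged at 700 and 800 nm for integrated intensity; IC50 in μM.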

EP300 (P300(1048-1664)) = biological target: T2, EP300 (P300(1048-1664)) (Homo sapiens, UniProt Q09472); assay: Biochemical assay for EP300, SAMDI; conditions: EP300, SAMDI; read-out: EP300 Biochemistry IC50
T2 construct: P300(1048-1664)
T2 sequence (Q09472 1048-1664): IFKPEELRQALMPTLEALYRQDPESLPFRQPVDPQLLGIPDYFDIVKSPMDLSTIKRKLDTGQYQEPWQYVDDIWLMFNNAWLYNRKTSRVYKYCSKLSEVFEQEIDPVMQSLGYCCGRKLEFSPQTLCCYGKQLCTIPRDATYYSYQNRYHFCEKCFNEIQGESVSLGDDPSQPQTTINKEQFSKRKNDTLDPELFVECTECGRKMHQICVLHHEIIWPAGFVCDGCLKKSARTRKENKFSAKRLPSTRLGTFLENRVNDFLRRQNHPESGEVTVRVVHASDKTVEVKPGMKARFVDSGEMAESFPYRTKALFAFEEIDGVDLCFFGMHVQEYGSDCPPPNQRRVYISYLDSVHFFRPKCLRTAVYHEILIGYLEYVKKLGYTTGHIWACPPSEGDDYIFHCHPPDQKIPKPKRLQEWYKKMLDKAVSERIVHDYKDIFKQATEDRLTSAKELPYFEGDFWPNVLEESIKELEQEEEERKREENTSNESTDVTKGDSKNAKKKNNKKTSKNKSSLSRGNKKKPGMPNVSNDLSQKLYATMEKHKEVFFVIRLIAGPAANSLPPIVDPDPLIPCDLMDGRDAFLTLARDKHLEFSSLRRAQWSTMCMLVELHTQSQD
Source text: The following example describes materials and methods relating to a biochemical assay for EP300. IC50 values (micromolar (μM)) are summarized in Table 1, Table 2, and Table 3 under the column labeled: “EP300 Biochemistry IC50 (micromolar).”

[2] = Homo sapiens, 647-V, high throughput proliferation
[3] = Homo sapiens, 647-V, high throughput proliferation, 647V cells
[4] = H3K18Ac in-cell western, HB-CLS-2 cells

T1 sequence (Q92793 1084-1701): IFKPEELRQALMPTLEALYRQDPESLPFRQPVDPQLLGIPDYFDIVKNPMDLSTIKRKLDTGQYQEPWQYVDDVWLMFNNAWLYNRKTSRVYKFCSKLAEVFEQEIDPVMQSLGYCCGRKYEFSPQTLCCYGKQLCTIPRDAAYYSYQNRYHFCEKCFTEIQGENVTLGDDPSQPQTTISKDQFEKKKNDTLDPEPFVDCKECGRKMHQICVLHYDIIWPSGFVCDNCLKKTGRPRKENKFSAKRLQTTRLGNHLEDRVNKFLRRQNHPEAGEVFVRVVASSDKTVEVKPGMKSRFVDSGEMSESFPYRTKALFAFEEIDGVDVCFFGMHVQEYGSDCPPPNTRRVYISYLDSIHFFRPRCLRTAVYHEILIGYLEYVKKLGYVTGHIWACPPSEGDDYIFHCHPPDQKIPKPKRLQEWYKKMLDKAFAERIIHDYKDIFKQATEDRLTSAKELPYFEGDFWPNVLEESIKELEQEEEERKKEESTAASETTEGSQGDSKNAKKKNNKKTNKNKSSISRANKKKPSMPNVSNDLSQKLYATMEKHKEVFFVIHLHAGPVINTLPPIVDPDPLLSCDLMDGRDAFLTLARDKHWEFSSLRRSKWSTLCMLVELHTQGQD

Compound	IC50 (CREBBP (1084-1701)) [µM]	IC50 ([1]; H3K18Ac in-cell western) [µM]	IC50 (EP300 (P300(1048-1664))) [µM]	IC50 [1, 4] [µM]	IC50 (647V cells; [2]) [µM]	also measured
CCN(Cc1cnn(CC)c1C)C(=O)c1cc(-c2cccc(Cl)c2)nc2ccc(Cl)cc12 [Compound 175]	5.3	15			9.4	
CCn1ncc(CN(C)C(=O)c2cc(-c3cc(C)nc(C)n3)nc3ccc(Cl)cc23)c1C [Compound 411]	50		50			
CCn1ncc(CN(C)C(=O)c2nc(-c3ccn(CCCN4CCCC4)n3)nc3ccc(Cl)cc23)c1C [Compound 184]			163			IC50 (647V cells; high throughput proliferation): 15 µM
CCn1ncc(CN(C)C(=O)c2nc(-c3ccc4c[nH]nc4c3Cl)nc3ccc(COC)cc23)c1C [Compound 68]	0.25	0.8				IC50 (647V cells; high throughput proliferation): 0.69 µM
CCn1ncc(CN(C)C(=O)c2cc(-c3ccccc3F)nc3ccc(Cl)cc23)c1C [Compound 86]	0.71	1.3			1.4	
CCn1ncc(CN(C)C(=O)c2nc(-c3cncn3C)nc3ccc(Cl)cc23)c1C [Compound 158]	14	9.8				IC50 (647V cells; high throughput proliferation): 6.6 µM
CCn1ncc(CN(C)C(=O)c2nc(-c3ccc4[nH]cnc4c3)nc3ccc(Cl)cc23)c1C [Compound 57]		0.66			0.5	
CCn1ncc(CN(C)C(=O)c2nc(-c3cccc(Cl)c3)nc3ccc(Cl)cc23)c1C [Compound 71]	0.0094	0.92			1.2	
CCn1ncc(CN(C)C(=O)c2nc(-c3ccc4nc[nH]c4c3)nc3ccc(Cl)cc23)c1C [Compound 47]		0.43			0.42	
CCn1ncc(CN(C)C(=O)c2nc(-n3cc4c(n3)CN(C(=O)OC(C)(C)C)CC4)nc3ccc(Cl)cc23)c1C [Compound 193]		20			8.2	
CCn1ncc(CN(C)C(=O)c2cc(-c3cccc(Cl)c3)nc3ccc(Cl)cc23)c1C [Compound 106]	0.31	2.4			2.6	
CCn1ncc(CN(C)C(=O)c2nc(-c3cnc(CNC(C)=O)n3C)nc3ccc(Cl)cc23)c1C [Compound 237]			50			
CCn1ncc(CN(C)C(=O)c2nc(-c3cc(Cl)cc(OCCCNC(=O)OC(C)(C)C)c3)nc3ccc(Cl)cc23)c1C [Compound 180]		19			20	
CCn1ncc(CN(C)C(=O)c2cc(-c3ccccc3C#N)nc3ccc(Cl)cc23)c1C [Compound 81]	1.8	1.2			2.2	
Cc1c(CN(C)C(=O)c2cc(-c3cccc(Cl)c3)nc3ccc(Cl)cc23)cnn1C(C)C [Compound 132]	0.31	4.9			2.2	
CCn1ncc(CN(C)C(=O)c2cc(-c3ccccn3)nc3ccc(Cl)cc23)c1C [Compound 92]	0.31	1.7			0.41	
CCn1ncc(CN(C)C(=O)c2cc(-n3cc4c(n3)CN(C(=O)OC(C)(C)C)CC4)nc3ccc(Cl)cc23)c1C [Compound 178]		17			4.8	
CCn1ncc(CN(C)C(=O)c2nc(-c3ccc4c[nH]nc4c3Cl)nc3ccc(COC)cc23)c1C [Compound 52]	0.25	0.52			0.69	
CCn1ncc(CN(C)C(=O)c2nc(-c3cccc(Cl)c3)nc3ccccc23)c1C [Compound 130]	2	4.7			6.5	
CCn1ncc(CN(C)C(=O)c2nc(-c3ccc(OCCCNC)c(C)c3)nc3ccc(Cl)cc23)c1C [Compound 29]	0.028	0.23			0.1	
CCc1ncc(CN(C)C(=O)c2cc(-c3ccc(NCC(O)CN(C)C)c(C)n3)nc3ccc(COC)cc23)n1C (stereo not shown) [Compound 644]						IC50 (647V cells; Homo sapiens, 647-V, 168 h, 647V cells, day 7, CellTiter-Glo): 0.269 µM; IC50 ([1]; 2 h, H3K18Ac in HB-CLS-2 cells, 2 hrs compound incubation): 0.701 µM
CCn1ncc(CN(C)C(=O)c2nc(-c3ccc(OCCCNC)c(C)c3)nc3ccc(Cl)cc23)c1C [Compound 36]	0.052	0.3				IC50 (647V cells; high throughput proliferation): 0.18 µM
CCn1ncc(CN(C)C(=O)c2nc(-c3ccc4nc[nH]c4c3)nc3ccc(Cl)cc23)c1C [Compound 59]		0.67				IC50 (647V cells; high throughput proliferation): 0.44 µM

Second part, led by results:

IC50 (CREBBP (1084-1701)) [µM]	IC50 ([1]; H3K18Ac in-cell western) [µM]	IC50 (EP300 (P300(1048-1664))) [µM]	IC50 [1, 4] [µM]	Compound	IC50 (647V cells; [2]) [µM]	also measured
		114	20	Cc1n[nH]c(C)c1CN(C)C(=O)c1nc(-c2cccc(Cl)c2)nc2ccc(Cl)cc12 [Compound 248]		IC50 (647V cells; [3]): 19 µM
		175	20	CCn1ncc(CN(C)C(=O)c2nc(N3CCNCC3)nc3ccc(Cl)cc23)c1C [Compound 202]		
		157	20	CCn1ncc(CN(C)C(=O)c2nc(-c3cn(CCCNC)cn3)nc3ccc(Cl)cc23)c1C [Compound 247]		IC50 (647V cells; [3]): 20 µM
			20	CCc1cc(-c2nc(C(=O)N(C)Cc3cnn(CC)c3C)c3cc(Cl)ccc3n2)ccc1OCCCN(C)C(=O)OC(C)(C)C [Compound 209]		IC50 (647V cells; [3]): 8.8 µM
			20	CCn1ncc(CN(C)C(=O)c2cc(-c3cn(Cc4ccc(OC)cc4)c(CN(C)C)n3)nc3ccc(Cl)cc23)c1C [Compound 239]		IC50 (647V cells; [3]): 20 µM
		0.13	0.25	CCn1ncc(CN(C)C(=O)c2nc(-c3cc(C)c4cn[nH]c4c3)nc3ccc(Cl)cc23)c1C [Compound 412]		IC50 (647V cells; [3]): 0.15 µM
		41	20	CCn1ncc(CN(C)C(=O)c2nc(-c3cc(C(=O)NC)on3)nc3ccc(Cl)cc23)c1C [Compound 215]		
		0.18	0.4	CCn1ncc(CN(C)C(=O)c2nc(-c3ccc(OCCNC(=O)C(C)C)c(Cl)c3)nc3ccc(Cl)cc23)c1C [Compound 416]		IC50 (647V cells; [3]): 0.4 µM
0.149	0.341	0.072		CCn1ncc(CN(C)C(=O)c2nc(-c3cc(C(=O)NC)n(C)n3)nc3ccc(COC)cc23)c1C [Compound 630]		
		13	20	Cc1c(CN(C)C(=O)c2nc(-c3cc(Cl)cc(CNC4CCCCC4)c3)nc3ccc(Cl)cc23)cnn1CO [Compound 236]		
			20	Cc1n[nH]c(C)c1CN(C)C(=O)c1nc(-c2ccccc2Cl)nc2ccc(Cl)cc12 [Compound 229]		IC50 (647V cells; [3]): 20 µM
			20	CCn1ncc(CN(C)C(=O)c2cc(-c3ccc(OCCCNC)cn3)nc3ccc(Cl)cc23)c1C [Compound 219]		IC50 (647V cells; [3]): 20 µM
			20	CCc1[nH]cc(CN(C)C(=O)c2nc(-c3ccccc3Cl)nc3ccc(Cl)cc23)c1C [Compound 221]		IC50 (647V cells; [3]): 10 µM
13			15	CCn1ncc(CN(C)C(=O)c2nc(-c3ccccc3Cl)nc3ccccc23)c1C [Compound 284]		IC50 (647V cells; [3]): 8.5 µM
	20			CCn1ncc(CN(C)C(=O)c2nc(N3CCCN(C)CC3)nc3ccc(Cl)cc23)c1C [Compound 196]	17	
190		126	20	CCn1ncc(CN(C)C(=O)c2nc(-c3cccc(Cl)c3)nc3cc(N4CCOCC4)c(Cl)cc23)c1C [Compound 200]		
		8		CCn1ncc(CN(C)C(=O)c2cc(-c3cnn[nH]3)nc3ccc(Cl)cc23)c1C [Compound 307]		
			20	CCn1ncc(CN(C)C(=O)c2nc(N3CCN(C)CC3)nc3ccc(Cl)cc23)c1C [Compound 245]		IC50 (647V cells; [3]): 20 µM

Source: patent US20220144812A1, “QUINOLINE DERIVATIVES AND THEIR USE FOR THE TREATMENT OF CANCER” (Epizyme, Inc., priority 2019, published 2022)
